From Sander's compilation of Henry's law constants (doi:10.1016/j.ijggc.2017.01.001)

experiment: Henry solubility constant Hcp at 313 K (mol/(m3 Pa)); details: reference: Du et al. (2017)

Row | Compound | Henry solubility constant Hcp at 313 K
1 | CCN(CC)CCO [2-(diethylamino)ethanol] | 5.9
2 | OCCN1CCCCC1 [1-(2-hydroxyethyl)piperidine] | 51
3 | Cn1ccnc1 [1-methyl-1H-imidazole] | 69
4 | Cc1nccn1C [1,2-dimethylimidazole] | 43
5 | CCc1ncc[nH]1 [2-ethylimidazole] | 760
6 | CN1C2CCC1CC(O)C2 (stereo not given) [tropine] | 1300
7 | Cc1ncc[nH]1 [2-methyl-1H-imidazole] | 810
8 | CN(CCO)CCO [N-methyldiethanolamine] | 3300
9 | CCc1ncc(C)[nH]1 [2-ethyl-4-methylimidazole] | 280
10 | OCCC1CCCCN1 (stereo not given) [2-piperidineethanol] | 390
11 | CN1CCC(O)CC1 [4-hydroxy-N-methylpiperidine] | 1300
12 | NCc1cccnc1 [3-(aminomethyl)pyridine] | 430
13 | CC(C)(N)CO [2-amino-2-methyl-1-propanol] | 210

Results, then the compound that gave them:

Row | Henry solubility constant Hcp at 313 K | Compound
14 | 110 | CC(C)NCCO [2-(isopropylamino)ethanol]
15 | 710 | CCC(N)(CO)CO [2-amino-2-ethyl-1,3-propanediol]
16 | 110 | COCCNCCOC [bis(2-methoxyethyl)amine]
17 | 670 | CN(C)CC(O)CO (stereo not given) [3-(dimethylamino)-1,2-propanediol]
18 | 540 | CCN(CC)CC(O)CO (stereo not given) [3-(diethylamino)-1,2-propanediol]
19 | 830 | CN(C)CCOCCO [dimethylaminoethoxyethanol]
20 | 21 | COCCCN [3-methoxy-1-propanamine]
